From patent US9771395B2, “Enhanced influenza hemagglutinin binders” (UNIVERSITY OF WASHINGTON, priority 2014, dated 2017) come the findings set out here.

Data set [1] relates to CA09 virus. Put plainly: Post-exposure (therapeutic) administration after CA09 challenge in BALB/c mice. In kind it is in vivo. How it is done:
All animal experiments used in this study were approved by the University of Washington Institutional Animal Care and Use Committee. […] […] In a therapeutic setting, mice received the protein binder 0 (2 hours post-infection), 1, 2, 3, or 4 days post infection. The mice were monitored daily for weight loss and survival until 14 days post-infection. Animals that lost more than 30% of their initial body weight were euthanized in accordance with our animal protocol. The SCID (NOD SCID gamma, strain NOD.Cg-Prkdcscid Il2rgtm1Wjl/SzJ) mice and the MyD88−/−(strain B6.129P2(SJL)-Myd88tm1.1Defr/J) mice were purchased from Jackson Laboratory.

Data set [2] has as its system CA09 virus. Briefly: Pre-exposure administration and CA09 challenge in SCID mice. It counts as in vivo, NOD SCID gamma (SCID) mice. The following applies: 6.0 mg/kg IN 2 hrs before CA09. Here is the method: (§1) All animal experiments used in this study were approved by the University of Washington Institutional Animal Care and Use Committee. […] Two to forty-eight hours later, the mice were anesthetized by isoflurane and challenged intranasally with 10 MLD50 (fifty percent mouse lethal dose) of either A/California/07/09 (H1N1) (CA09) or A/PR/8/34 (H1N1) (PR8). In a therapeutic setting, mice received the protein binder 0 (2 hours post-infection), 1, 2, 3, or 4 days post infection. The mice were monitored daily for weight loss and survival until 14 days post-infection. Animals that lost more than 30% of their initial body weight were euthanized in accordance with our animal protocol. The SCID (NOD SCID gamma, strain NOD.Cg-Prkdcscid Il2rgtm1Wjl/SzJ) mice and the MyD88−/−(strain B6.129P2(SJL)-Myd88tm1.1Defr/J) mice were purchased from Jackson Laboratory.

For data set [3], the system named is H1N1 A/California/07/2009 (CA09) virus. Put plainly: Pre-exposure administration and lethal influenza challenge in BALB/c mice. It counts as in vivo. The following applies: 6.0 mg/kg, 48 or 2 hrs before CA09 challenge. How it is done:
as §1

Data set [4] deals with CA09 virus. Briefly: Pre-exposure administration and CA09 challenge in MyD88-/- mice. In kind it is in vivo. The settings on record: 6.0 mg/kg IN 2 hrs before CA09. Here is the method:
as §1

In data set [5] the test system is human (H1N1) and avian (H5N1) influenza viruses. Briefly: microbe, parasite or virus in culture. It counts as cell-based, Influenza virus. The settings on record: Influenza A virus, MDCK, read-out: EC50 range.
A short description of data set [6]: Bio-Plex inflammatory cytokines in lung homogenates after protein administration (no infection). The following applies: single IN dose 6.0 mg/kg. It counts as in vivo, BALB/c mice. How it is done: The concentrations of cytokines in lung tissue were measured. […] Lungs were thawed, weighed and lysed using the Bio-Plex® Cell Lysis Kit (Bio-Rad, Hercules, Calif.). The levels of interleukin (IL)-6, IL-10. IL-12(p70), interferon (IFN)-γ, and tumor necrosis factor (TNF)-α in the lysate were measured using a Bio-Plex) multiplex bead array kit (Bio-Rad, Hercules, Calif.). The Bio-Plex® assay was performed in accordance with the manufacturer's instructions.

Data set [7] deals with Group I Hemagglutinin (HA) subtypes. It counts as binding, Influenza virus.

≈ marks a conversion by molar mass, not a printed value.

With `CCOC(=O)C1=C[C@@H](OC(CC)CC)[C@H](NC(C)=O)[C@@H](N)C1` [oseltamivir, reference compound], in the data set with CA09 virus [1] (5 mg/kg/day by oral gavage, twice daily for 5 days starting day +1 p.i., 3 MLD50 CA09), the survival worked out at 0%. Also, the “delay of time to death compared to controls” value in the data set on CA09 virus [1] (5 mg/kg/day by oral gavage, twice daily for 5 days starting day +1 p.i., p<0.001) is on record as “about 2.5 days”.

With lysozyme [reference compound], the “survival (protected mice)” value in the data set with CA09 virus [2] and in the data set on CA09 virus [4] was 0% in each case. For the same molecule, the weight loss result in the data set on CA09 virus [2] and in the data set with CA09 virus [4] was “significant weight loss” throughout. The protection entry in data set [3] was “no protection”.

As a reminder, the EC50 is the midpoint of the concentration-response curve. Regarding `NC(=O)c1ncn([C@@H]2O[C@H](CO)[C@@H](O)[C@H]2O)n1` [Ribavirin, 1- -D-ribofuranosyl-1,2,4-triazole-3-carboxamide, reference compound], the 50% effective concentration (EC50) in data set [5] lay within 15 to 18 µg/mL (≈ 61.4 to 73.7 µM).

B1: 1u84: scaffold protein (PDB ID 1u84) that HB36.6 is modeled on; non-protective control (protein)
chain: SNAMDGQQLNRLLLEWIGAWDPFGLGKDAYDVEAASVLQAVYETEDARTLAARIQSIYEFAFDEPIPFPHCLKLARRLLELKQAASCPLP
On to B1, for which the “cytokine levels by 48 hrs” value in data set [6] was “dropped to pre-administration levels”. Besides, the “survival (protected mice)” value in the data set on CA09 virus [2] and in the data set with CA09 virus [4] was 0% in each case. The weight loss entry in the data set with CA09 virus [2] and with CA09 virus [4] was “significant weight loss” each time. The protection entry in the data set with CA09 virus [1] (daily administration after CA09 challenge) is recorded as “no protection”.

B2: HB36.5: stable, broadly cross-reactive HA binding protein (SEQ ID NO: 4), parent of HB36.6 (protein)
chain: SNAMDGQQLNRLLLEWIGAWDPFGLGKDAYDYEAAEVLKAVYETESAFDLAMRIHWIYNFAFKRQIPFAHAQKLARRLLELKQAASSPLP
modifications: (1)..(5) optionally absent; (86)..(90) optionally absent
As for B2, in data set [7], the “cross-reactivity against Group I HA subtypes” value is on record as “broadly cross-reactive”.
